Columns and labels:
Type in all cases: cell-based
[1] = system: protoplasts of the Primula rupestris sepals; assay: FLIPR calcium signal detection in protoplasts of Primula rupestris sepals
Text: According to the method in Example 4, the EGTA solution and the CaCl2 solution were combined to treat the change of the protoplasts of the Primula rupestris sepals, and the parameters of the examples and comparative examples are shown in Table 6: […]

[2] = system: protoplasts of the Primula rupestris petals; assay: FLIPR calcium signal detection in protoplasts of Primula rupestris petals
Text: According to the method in Example 4, the EGTA solution and the CaCl2 solution were combined to treat the change of the protoplasts of the Primula rupestris petals, and the parameters of the examples and comparative examples are shown in Table 7:

[3] = system: protoplasts of the valerian leaves; assay: FLIPR calcium signal detection in protoplasts of valerian leaves
[4] = system: protoplasts of the Primula rupestris leaves; assay: FLIPR calcium signal detection in protoplasts of Primula rupestris leaves
Protocol: (§1) (1) The protoplasts prepared in Example 1 were taken out, and mixed with the calcium dye according to a ratio of protoplast: calcium dye=1:1, and a group added with only a calcium dye and without protoplasts was taken as a control group, and added to a 96-well plate of a cell plate, as shown in Table 1:
(2) A buffer (helps buffer) was used to prepare a 96-well plate of the cell plate with different concentrations of CaCl2 solutions: CaCl2 (0, 10, 20, 40, 60, 80, 100, 150, 200, 300, and 500 mM). A group without adding protoplasts was taken as a control group.
(3) The cell plate was wrapped with a plastic wrap, and incubated at 37° C. for 1 h. After the incubation, the two plates were balanced, centrifuged at 600 rpm at 4° C. for 1-2 min, and loaded on the machine.
(4) The above experiment was repeated for 10 times to observe whether the results were consistent. The order of concentrations from top to bottom in the legend on the right in FIG. 3 and the order of concentrations from left to right in Table 2 can be in one-to-one correspondence.
The buffer was used to prepare a 96-well plate of the cell plate with different concentrations of CaCl2 solutions: CaCl2 (0, 100, 200, 220, 240, 260, 280, 300, 350, 400, and 450 mM). The cell plate was wrapped with a plastic wrap, and incubated at 37° C. for 1 h. After the incubation, the two plates were balanced, centrifuged at 600 rpm at 4° C. for 1-2 min, and loaded on the machine. The order of concentrations from top to bottom in the legend on the right in FIG. 5 and the order of concentrations from left to right in Table 3 can be in one-to-one correspondence:
Using step (1) in Example 2, a buffer was used to prepare a 96-well plate of a cell plate with different concentrations of EGTA solutions: EGTA solution (0, 0.1, 0.5, 1.0, 5, 10, 25, 50, 100, 150, and 200 mM).
The cell plate was wrapped with a plastic wrap, and incubated at 37° C. for 1 h. After the incubation, the two plates were balanced, centrifuged at 600 rpm at 4° C. for 1-2 min, and loaded on the machine.
The above experiment was repeated for 10 times to observe whether the results were consistent. The order of concentrations from top to bottom in the legend on the right in FIG. 7 and the order of concentrations from left to right in Table 4 can be in one-to-one correspondence.
as §1, with “dye=1:1 till a total of 150 μL,” for “dye=1:1,”, “plate.” for “plate, as shown in Table 1:”
(2) 220 mM of CaCl2 solution and 100 μM of EGTA solution were added to the 96-well plate of the cell plate in step (1).
(4) The above experiment was repeated for 10 times to observe whether the results were consistent.
The difference was that the EGTA solution and the CaCl2 solution in step (3) had different concentrations, and the corresponding parameters are shown in Table 5: […]

[5] = method of Example 2, FIG. 18-19
[6] = method of Example 2, FIG. 25-26

## [Ca+2].[Cl-].[Cl-] [CaCl2]
[1]; method of Example 2, FIG. 11-12
  CaCl2 concentration at which the calcium signal changes significantly: 350 mM
[2]; [5]
  CaCl2 concentration range in which the calcium signal changes significantly: 350 to 450 mM
  concentration of the CaCl2 solution at which the calcium signal surges significantly: 350 mM
[3]; [6]
  CaCl2 concentration range in which the calcium signal changes significantly: 220 to 450 mM
  concentration of the CaCl2 solution at which the calcium signal surges significantly: 220 mM
[4]; first series 0-500 mM CaCl2, 37° C. 1 h, FIG. 2-3
  concentration of the CaCl2 solution at which the calcium signal surges significantly: 300 mM
[4]; refined series 0-450 mM CaCl2, 37° C. 1 h, FIG. 4-5
  concentration of the CaCl2 solution at which the calcium signal surges significantly: 220 mM
[4]; refined series, FIG. 4-5
  confirmed concentration of the CaCl2 solution (exogenous calcium signal stimulation): 220 to 450 mM

## O=C(O)CN(CCOCCOCCN(CC(=O)O)CC(=O)O)CC(=O)O [EGTA, ethylene glycol tetraacetic acid]
[1]; EGTA plus CaCl2, Table 6 settings, FIG. 15-16
  effect of composite reaction of EGTA solution and CaCl2 solution on calcium signal fluorescence: can chelate the change of the fluorescence caused by the exogenous calcium signal
[1]; method of Example 3, FIG. 13-14
  confirmed concentration of the calcium signal chelator EGTA solution: 5 to 200 µM
[2]; EGTA plus CaCl2, Table 7 settings, FIG. 22-23
  effect of composite reaction of EGTA solution and CaCl2 solution on calcium signal fluorescence: can chelate the change of the fluorescence caused by the exogenous calcium signal
[2]; method of Example 3, FIG. 20-21
  confirmed concentration of the calcium signal chelator EGTA solution: 5 to 200 µM
[3]; EGTA plus CaCl2, Table 8 settings, FIG. 29-30
  effect of composite reaction of EGTA solution and CaCl2 solution on calcium signal fluorescence: can chelate the change of the fluorescence caused by the exogenous calcium signal
[3]; method of Example 3, FIG. 27-28
  confirmed concentration of the calcium signal chelator EGTA solution: 0.1 to 200 µM
[4]; EGTA plus CaCl2 1:1, Table 5 settings, FIG. 8-9
  effect of composite reaction of EGTA solution and CaCl2 solution on calcium signal fluorescence: can chelate the change of the fluorescence caused by the exogenous calcium signal
[4]; EGTA series 0-200, 37° C. 1 h, FIG. 6-7
  EGTA solution concentration with relatively excellent chelation effect on the calcium signal: 5 to 200 µM
